Measurements published in patent US6130228A, “Polycyclic compounds” (priority 1995, dated 2000).
Like-named read-outs stand apart in the source and are kept apart here.

How the values were obtained:
[1] = biological target: T1, Acetylcholinesterase (AChE) (Rattus norvegicus, UniProt P37136); experiment: biochemical; type: biochemical, Male Rats (Sprague Dawley), brain
T1 construct: The brain was removed and homogenised; from tissue; host or cells: rat brain (male Sprague Dawley), Triton X100 detergent supernatant of the EDTA-buffer pellet
Protocol: (i) Enzyme Source for AChE
5 Male Rats (Sprague Dawley) weighing approx 250 g were killed by CO2 overdose and cervical dislocation.
The brain was removed and homogenised (9 strokes at 840 rpm with 4 volumes of phosphate buffer pH 7.4+10 mM (EDTA) and centrifuged at 27,000 g for 30 minutes.
The supernatant was discarded and the pellet resuspended in phosphate buffer with 10 mM EDTA+1- Triton X100 (2 ml/g wet weight). The crude homogenate was centrifuged at 27,000 g for 30-40 minutes.
The pellet was discarded and the supernatant was dispensed into 0.5 ml aliquots and stored at -20° C. until required.
Phosphate Buffer (0.1M. pH 7.4)
Made up to 500 ml with distilled H2 O, pH 7.4.
0.5 ml aliquots of brain (enzyme solution) as prepared above were thawed out. 2 ml of phosphate buffer was added to each aliquot. 2 ml of the enzyme solution was incubated with 2 ml PDS for 60 minutes at 0° C. The composition of blank, control and test solutions are given below:
0.9 ml phosphate buffer (0.1 M, pH 7.4)
0.85 ml phosphate buffer (0.1M, pH 7.4)
0.05 ml acetylthiocholine (5.2 mM)
(§1) 0.8 ml phosphate buffer (0.1M, pH 7.4)
0.05 ml Acetylthiocholine 5.2 mM
Change in absorbance was measured at 30 second intervals for 3 minutes at […]. The control was taken as 100%. Inhibitor was calculated as a percentage of the control. A graph of Log of inhibitor conc. versus % control was plotted and IC5. values calculated by interpolation.

[2] = biological target: T2, Butyrylcholinesterase (BChE) (Equus caballus, UniProt P81908); experiment: biochemical; settings: for IC50: Table 2
T2 construct: purchased Sigma c-7512
Protocol: The following components were utilised:
Phosphate Buffer (0.1M, pH 7.4)
Made up to 500 ml with distilled H2 O, pH 7.4
1 ml of enzyme solution (i), was incubated with 2 ml PDS for 60 minutes at 0° C.
Components of the assay blank, controls and test solutions are provided below:
0.9 ml phosphate buffer (0.1M, pH 7.4)
0.85 ml phosphate buffer (0.1 M, pH 7.4)
0.05 ml Acetylthiocholine (5.2 mM)
as §1
Control was taken as 100%. Inhibitor was calculated as a percentage of control. A graph of Log of inhibitor conc. versus % control was plotted and IC50 values calculated by interpolation.

5-HT (serotonin) uptake = type: biochemical, rat (Sprague Dawley)
Protocol: One male rat (Sprague Dawley) weighing approx. 200-250 g was sacrificed by cervical dislocation. The brain was dissected out and the cerebellum discarded. The brain was then weighed and 10 ml ice cold sucrose (0.32M) added per gram tissue. […] The pellet was discarded and the supernatant retained (crude synaptosomal preparation).
All tubes were set up in triplicate. […] 100 μl of the prepared synaptosomal preparation was added to each tube and incubated for 5 minutes in a shaking water bath at 37° C. Any reaction was stopped by plunging the tubes into an ice water bath. ^3 H NA (10^-7 M) or ^3 H 5-HT ([…]) was added to each tube and incubated for 5 minutes in a shaking water bath at 37° C. Any reaction was stopped by plunging the tubes into an ice-water bath. Accumulated monoamines were collected using a Brandell Cell Harvester under mild vacuum. Filters were rinsed (2×) using 4 ml of ice-cold 0.9% saline. Scintillation fluid was added (4 ml/tube). Radioactivity was measured on a scintillation counter.
Non-specific values were subtracted from total values. The control was taken as 100%. Drug effects were calculated as a percentage of control inhibitor value. A graph of log of drug concentration versus % control was plotted and IC50 values were calculated by interpolation.

[3] = Table 3, read-out: 5-HT UPTAKE INHIBITION

T2 sequence (P81908 whole entry): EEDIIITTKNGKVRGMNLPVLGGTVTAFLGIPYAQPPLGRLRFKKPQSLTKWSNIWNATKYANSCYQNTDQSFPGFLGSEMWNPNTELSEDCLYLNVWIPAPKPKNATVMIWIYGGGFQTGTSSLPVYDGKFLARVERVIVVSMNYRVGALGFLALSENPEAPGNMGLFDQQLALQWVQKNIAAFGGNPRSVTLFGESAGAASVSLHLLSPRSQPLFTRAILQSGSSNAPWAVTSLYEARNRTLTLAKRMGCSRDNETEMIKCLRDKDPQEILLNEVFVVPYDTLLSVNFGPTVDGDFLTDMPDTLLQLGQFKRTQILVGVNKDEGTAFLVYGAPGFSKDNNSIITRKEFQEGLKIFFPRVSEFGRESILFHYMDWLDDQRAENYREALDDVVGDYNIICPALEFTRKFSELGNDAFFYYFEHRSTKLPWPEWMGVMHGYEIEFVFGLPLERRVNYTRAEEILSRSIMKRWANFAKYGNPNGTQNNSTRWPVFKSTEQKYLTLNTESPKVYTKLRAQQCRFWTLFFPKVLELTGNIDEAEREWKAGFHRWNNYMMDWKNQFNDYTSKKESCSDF
T1 sequence (P37136 32-614): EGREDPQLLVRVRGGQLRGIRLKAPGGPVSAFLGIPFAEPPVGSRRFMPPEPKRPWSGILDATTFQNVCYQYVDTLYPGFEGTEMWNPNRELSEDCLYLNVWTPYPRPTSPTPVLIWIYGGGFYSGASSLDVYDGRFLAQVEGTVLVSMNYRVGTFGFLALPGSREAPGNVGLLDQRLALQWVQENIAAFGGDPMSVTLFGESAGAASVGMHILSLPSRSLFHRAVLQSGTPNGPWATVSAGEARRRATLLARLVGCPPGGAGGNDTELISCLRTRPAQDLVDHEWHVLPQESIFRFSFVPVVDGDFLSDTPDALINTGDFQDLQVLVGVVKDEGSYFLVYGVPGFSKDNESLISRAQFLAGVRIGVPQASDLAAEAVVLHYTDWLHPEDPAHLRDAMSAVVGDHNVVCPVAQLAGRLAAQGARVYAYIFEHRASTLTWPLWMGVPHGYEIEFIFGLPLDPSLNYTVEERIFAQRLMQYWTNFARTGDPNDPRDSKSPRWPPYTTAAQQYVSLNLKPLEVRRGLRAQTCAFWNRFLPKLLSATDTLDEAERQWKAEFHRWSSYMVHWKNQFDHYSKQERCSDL

Cc1cccc2c(N)c3c(nc12)CCC3 [Compound 21, 9-Amino-5-methyl-2.3-dihydro-1H -cyclopenta[1,2-b] quinoline]
AChE TACRINE RATIO [1]: 0.024 | IC50 ([1]; Table 2, read-out: AChE IC50): 3.3 µM | BChE TACRINE RATIO [2]: 0.002 | IC50 ([2]; read-out: BChE IC50): 13.8 µM | 5-HT UPTAKE INHIBITION TACRINE RATIO (5-HT (serotonin) uptake): 0.633 | IC50 (5-HT (serotonin) uptake; [3]): 12 µM

COc1ccc2nc3c(c(N)c2c1)Cc1ccccc1-3 [Compound 36, 6-Amino-8-methoxy-4,5-benzo-[5H]-cyclopenta-[1,2-b]-quinoline]
AChE TACRINE RATIO [1]: 0.002 | IC50 ([1]; Table 2, read-out: AChE IC50): 47 µM | 5-HT UPTAKE INHIBITION TACRINE RATIO (5-HT (serotonin) uptake): 0.300 | IC50 (5-HT (serotonin) uptake; [3]): 29 µM

Nc1c2c(nc3ccc(F)cc13)-c1ccccc1CC2 [Compound 27, 7-Amino-9-fluoro-5,6-dihydrobenz[c] acridine]
AChE TACRINE RATIO [1]: 0.004 | IC50 ([1]; Table 2, read-out: AChE IC50): 18 µM | IC50 ([2]; NB = No Block at 100 μM, read-out: BChE IC50 (no block)): > 100 µM | 5-HT UPTAKE INHIBITION TACRINE RATIO (5-HT (serotonin) uptake): 2.171 | IC50 (5-HT (serotonin) uptake; [3]): 3.5 µM

Nc1c2c(nc3c(F)ccc(F)c13)CCC2 [Compound 31, 9-Amino-5,8-difluoro-2,3-dihydro-1H-cyclopenta[1.2b] quinoline]
AChE TACRINE RATIO [1]: 0.166 | IC50 ([1]; Table 2, read-out: AChE IC50): 0.47 µM | BChE TACRINE RATIO [2]: 0.005 | IC50 ([2]; read-out: BChE IC50): 4.8 µM

Cc1ccc2c(N)c3c(nc2c1C)CCC3 [Compound 26, 9-Amino-5,6-dimethyl-2,3-dihydro-1H-cyclopenta [1,2-b] quinoline]
AChE TACRINE RATIO [1]: 0.007 | IC50 ([1]; Table 2, read-out: AChE IC50): 11.6 µM | BChE TACRINE RATIO [2]: 0.003 | IC50 ([2]; read-out: BChE IC50): 9.2 µM | 5-HT UPTAKE INHIBITION TACRINE RATIO (5-HT (serotonin) uptake): 1.727 | IC50 (5-HT (serotonin) uptake; [3]): 4.4 µM

Cc1cc(C)c2c(N)c3c(nc2c1)CCC3 [Compound 30, 9-Amino-6,8-dimethyl-2,3-Dihydro-1H -cyclopenta [1,2-b] quinoline]
AChE TACRINE RATIO [1]: 0.600 | IC50 ([1]; Table 2, read-out: AChE IC50): 0.13 µM | BChE TACRINE RATIO [2]: 0.035 | IC50 ([2]; read-out: BChE IC50): 0.71 µM | 5-HT UPTAKE INHIBITION TACRINE RATIO (5-HT (serotonin) uptake): 0.938 | IC50 (5-HT (serotonin) uptake; [3]): 8.1 µM

Nc1c2c(nc3ccc(Cl)cc13)-c1ccccc1C2 [Compound 35, 6-Amino-8-chloro-4,5-benzo-[5H]-cyclopenta-[1,2-b]-quinoline]
IC50 ([1]; Table 2, read-out: AChE IC50): > 100 µM | 5-HT UPTAKE INHIBITION TACRINE RATIO (5-HT (serotonin) uptake): 0.070 | IC50 (5-HT (serotonin) uptake; [3]): 114 µM

Nc1c2c(nc3ccc(F)cc13)-c1ccccc1C2 [Compound 34, 6-Amino-8-Fluoro-4,5-benzo-[5H]-cyclopenta-[1,2-b]-quinoline]
AChE TACRINE RATIO [1]: 0.030 | IC50 ([1]; Table 2, read-out: AChE IC50): 2.9 µM | 5-HT UPTAKE INHIBITION TACRINE RATIO (5-HT (serotonin) uptake): 0.400 | IC50 (5-HT (serotonin) uptake; [3]): 18 µM

Nc1c2c(nc3ccc(F)cc13)CCCC2 [Compound 18, 9-Amino-7-fluoro-1,2,3,4-tetrahydro-acridine]
AChE TACRINE RATIO [1]: 0.390 | IC50 ([1]; Table 2, read-out: AChE IC50): 0.2 µM | BChE TACRINE RATIO [2]: 0.061 | IC50 ([2]; read-out: BChE IC50): 0.41 µM | 5-HT UPTAKE INHIBITION TACRINE RATIO (5-HT (serotonin) uptake): 3.304 | IC50 (5-HT (serotonin) uptake; [3]): 2.3 µM

Cc1ccc(C)c2c(N)c3c(nc12)CCC3 [Compound 20, 9-Amino-5,8-dimethyl-2,3-dihydro-1H -cyclopenta [1,2-b] quinoline]
AChE TACRINE RATIO [1]: 0.041 | IC50 ([1]; Table 2, read-out: AChE IC50): 1.9 µM | BChE TACRINE RATIO [2]: 0.018 | IC50 ([2]; read-out: BChE IC50): 1.4 µM | 5-HT UPTAKE INHIBITION TACRINE RATIO (5-HT (serotonin) uptake): 1.949 | IC50 (5-HT (serotonin) uptake; [3]): 3.9 µM

Cc1ccc2nc3c(c(N)c2c1)CCC3 [Compound 24, 9-Amino-7-methyl-2,3-dihydro-1H-cyclopenta [1,2-b] quinoline]
AChE TACRINE RATIO [1]: 0.012 | IC50 ([1]; Table 2, read-out: AChE IC50): 6.7 µM | BChE TACRINE RATIO [2]: 0.023 | IC50 ([2]; read-out: BChE IC50): 1.1 µM | 5-HT UPTAKE INHIBITION TACRINE RATIO (5-HT (serotonin) uptake): 0.447 | IC50 (5-HT (serotonin) uptake; [3]): 17 µM

Nc1c2c(nc3cc(F)c(F)cc13)CCC2 [Compound 8, 9-amino-6,7-difluoro-2,3-dihydro-1H -cyclopenta [1,2-b] quinoline]
AChE TACRINE RATIO [1]: 2.229 | IC50 ([1]; Table 2, read-out: AChE IC50): 0.035 µM | BChE TACRINE RATIO [2]: 0.003 | IC50 ([2]; read-out: BChE IC50): 10 µM | 5-HT UPTAKE INHIBITION TACRINE RATIO (5-HT (serotonin) uptake): 3.800 | IC50 (5-HT (serotonin) uptake; [3]): 2 µM

Nc1c2c(nc3c(F)cc(F)cc13)CCC2 [Compound 32, 9-Amino-5,7-difluoro-2.3dihydro-1H-cyclopenta[1,2b]quinoline]
AChE TACRINE RATIO [1]: 0.144 | IC50 ([1]; Table 2, read-out: AChE IC50): 0.54 µM | BChE TACRINE RATIO [2]: 0.003 | IC50 ([2]; read-out: BChE IC50): 8.8 µM

Nc1c2c(nc3cc(F)cc(F)c13)CCC2 [Compound 9, 9-Amino-6,8-difluoro-2.3-dihydro-1H -cyclopenta[1,2-b] quinoline]
AChE TACRINE RATIO [1]: 0.650 | IC50 ([1]; Table 2, read-out: AChE IC50): 0.12 µM | BChE TACRINE RATIO [2]: 0.018 | IC50 ([2]; read-out: BChE IC50): 1.4 µM | 5-HT UPTAKE INHIBITION TACRINE RATIO (5-HT (serotonin) uptake): 0.146 | IC50 (5-HT (serotonin) uptake; [3]): 52 µM

Nc1c2c(nc3ccc(F)c(F)c13)CCC2 [Compound 10, 9-Amino-7,8-difluoro-2,3-dihydro-1-H-cyclopenta-[1,2-b] quinoline]
AChE TACRINE RATIO [1]: 0.190 | IC50 ([1]; Table 2, read-out: AChE IC50): 0.41 µM | BChE TACRINE RATIO [2]: 0.002 | IC50 ([2]; read-out: BChE IC50): 15 µM | 5-HT UPTAKE INHIBITION TACRINE RATIO (5-HT (serotonin) uptake): 0.029 | IC50 (5-HT (serotonin) uptake; [3]): 260 µM

Nc1c2c(nc3cc(Cl)ccc13)CCC2 [Compound 17, 9-amino-6-chloro-2,3-dihydro-1H-cyclopenta[b] quinoline]
AChE TACRINE RATIO [1]: 8.041 | IC50 ([1]; Table 2, read-out: AChE IC50): 0.01 µM | BChE TACRINE RATIO [2]: 0.19 | IC50 ([2]; read-out: BChE IC50): 0.13 µM | 5-HT UPTAKE INHIBITION TACRINE RATIO (5-HT (serotonin) uptake): 5.067 | IC50 (5-HT (serotonin) uptake; [3]): 1.5 µM

Nc1c2c(nc3ccccc13)Cc1ccccc1CC2 [Compound 33, 13-amino 1,2-dihydro [1H] benz [7] annuleno [2,3-b] quinoline]
AChE TACRINE RATIO [1]: 0.002 | IC50 ([1]; Table 2, read-out: AChE IC50): 36 µM | 5-HT UPTAKE INHIBITION TACRINE RATIO (5-HT (serotonin) uptake): 0.400 | IC50 (5-HT (serotonin) uptake; [3]): 18 µM

Cc1cc(C)c2nc3c(c(N)c2c1)CCC3 [Compound 23, 9-Amino-5-7-Dimethyl-2,3-dihydro-1H-cyclopenta [1,2-b] quinoline]
AChE TACRINE RATIO [1]: 0.004 | IC50 ([1]; Table 2, read-out: AChE IC50): 19 µM | IC50 ([2]; read-out: BChE IC50): 52 µM | 5-HT UPTAKE INHIBITION TACRINE RATIO (5-HT (serotonin) uptake): 0.962 | IC50 (5-HT (serotonin) uptake; [3]): 7.9 µM

Nc1c2c(nc3ccccc13)CCCc1ccccc1-2 [Compound 7, 13-Amino 6.7 dihydro[1H] benz [7] annuleno [4,5-b]quinoline]
IC50 ([1]; Table 1, form BASE, ±SEM, n = 5, read-out: IC50 AChE): 38.2 µM | IC50 (5-HT (serotonin) uptake; Table 1, form BASE, n = 5, read-out: IC50 5HT UPTAKE): 0.02 µM
